# Laboratory results reported in US20260263421A1, “Method of Mitigating Radiation Injury with Geranylgeranyl Transferase Inhibitors” (BioVentures, LLC, priority 2022, published 2026).
# What was measured:
# [1] = tested on: small intestine of male C57BL/6J mice after 12 Gy PBI; test: 12 Gy γ-ray partial body irradiation (PBI) mouse model, intestinal injury and body weight at 2 weeks; format: in vivo
# Source text: In addition, GGTi-298 (commercially available, MedChemExpress, Monmouth Junction, NJ) mitigated adverse effects of 12 Gy γ-ray PBI on villus height, crypt depth and crypt width. […] This bacterium is inversely associated with obesity, diabetes, inflammation and metabolic disorders. Lastly, PBI-induced increases in the percentage of Turicibacter and Clostridium species were mitigated by GGTi-2133. Several Clostridium species are known to be pathogenic, while an increase in Turicibacter depletes CD8+ lymphocytes in the gut, which can adversely affect gut immune function.
# Data are represented as mean+/−standard deviation (SD; n=5 to 8 mice per group). “PBI” refers to partial body irradiation, and “Sham” refers to no PBI. The notations “a & b” refer to statistically significant difference from sham-irradiation and PBI, respectively. […] Both sham-irradiated mice and the PBI group received intraperitoneal administration of vehicle. […]
# FIGS. 5A-5D are photomicrographs showing olfactomedin 4 (OLFM4) staining in the crypts of sham irradiated vehicle treated mice (FIGS. 5A), 12 Gy PBI plus vehicle treated mice (FIGS. […] 5D). Colors represent staining intensities: yellow (dark), red (medium), and green (weak). FIG. 5E is a bar graph showing the average staining intensity for dark, medium, and weak immunoreactivity obtained by analyzing 10 randomly selected crypts under 100× magnification from each mouse. Data are presented as mean+/−SD (n=5 to 8). The notation “a & b” refer to statistically significant difference from sham and PBI, respectively.
# FIG. 6A is an H&E stained small intestinal section (20× magnification) to indicate how the villus height, crypt depth, and crypt width were measured with computerized analysis. […] Data are represented as mean+/−SD. The notation “a & b” refer to statistically significant difference from sham and PBI, respectively. Both sham-irradiated mice and the PBI group received intraperitoneal administration of vehicle.
# Villus height and crypt depth were measured in 30 randomly selected villi and crypts (20× magnification), MSA was measured in 5 randomly selected areas (20× magnification), and enterocyte length and the length of their nucleus were measured in 3 enterocytes/villus in 10 villi (100× magnification) for each mouse.
# Neutrophils and lymphocytes were scored under 40× magnification. Macrophages were scored in 30 villi under 100× magnification.
# GGTi-2133 treatment increases the number of intestinal proliferating cells after PBI: Two proliferation markers (PCNA and Ki-67) were used. […] Cells were scored under 40× magnification.
# Cells were scored under 20× magnification.
# GGTi-2133 increases the expression of intestinal stem cell marker olfactomedin 4 (OLFM4) after PBI: The inventors assayed OLFM4 protein with immunohistochemistry and computerized image analysis to classify the immunoreactive regions as “dark,” “medium,” or “weak” based on staining intensity.
# GGTi-298 treatment attenuates intestinal structural damage following PBI: In order to ensure another formulation of GGTi provides similar mitigation against intestinal damage following PBI, the inventors used GGTi-298 (MedChemExpress). […] Villus height, and crypt depth and width were measured in 30 randomly selected villi and crypts (20× magnification) for each mouse.
# [2] = Safe dose in humans (scientific literature); format: in vivo, human; conditions: body surface conversion factor; 54 mg/kg in humans
# Protocol: Based on scientific literature, it is understood that GGTi-2418 can be administered safely to humans in doses up to 2,060 mg/m^2 (54 mg/kg body weight) on days 1-5 of each 21-day cycle. By using a body surface conversion factor, 54 mg/kg in humans compares to 660 mg/kg in mice. In humans, GGTi can generally be administered in an effective amount with a dose escalation from about 200 mg/m^2 to 2060 mg/m^2 per day on days 1-5 of each 21-day cycle. In rats, the maximum tolerated dose for GGTi is 200 mg/kg for a single dosing or 150 mg/kg/day for 7 consecutive days. In addition to intraperitoneal administration, oral gavage, intravenous infusion, and subcutaneous administration are other acceptable modes of administration. While GGTi-298 and GGTi-2133 are the preferred GGTis in the method of the present invention, use of other GGTis are expected to show the same effects although the magnitude of the effects may not be as great.
# [3] = days 1-5 of each 21-day cycle; cited from earlier work
# [4] = tested on: small intestine crypts of male C57BL/6J mice after 12 Gy PBI; test: Surviving crypt assay (PCNA) in small intestine on day 3.5 after 12 Gy PBI; format: in vivo, mouse; conditions: 2.5 mg/kg i.p. at 24 h and 72 h, jejunum day 3.5, vs PBI plus vehicle
# Protocol: FIGS. 8A-8C are photomicrographs of small intestine sections stained for Proliferating Cell Nuclear Antigen (PCNA) in sham-irradiated vehicle treated mice (FIGS. 8A), 12 Gy PBI plus vehicle treated mice (FIG. 8B), and mice treated with 12 Gy PBI and 2.5 mg/kg GGTi-2133 on (FIG. 8C). Cross-sections from three different mice are shown in each of FIG. 8A, FIG. 8B, and FIG. 8C. Each mouse received two intraperitoneal injections of either vehicle or 2.5 mg/kg GGTi: the first injection was administered 24 hours after PBI and the second one was administered 72 hours after irradiation. Intestinal tissue was harvested 84 hours after irradiation. FIG. 8D is a bar graph showing the average number of surviving crypts from two intestinal cross sections that were used for data analysis. Crypts were scored under 20× magnification. Data are represented as mean+/−SD (n=8 animals per group). The notation “a & b” refer to statistically significant difference from sham and PBI, respectively.
# GGTi-2133 treatment enhances surviving crypt number on day 3.5 after PBI: Male C57BL/6J mice were exposed to 12 Gy PBI and administered GGTi-2133 (2.5 mg/kg) at 24 hours and 72 hours after irradiation. A specimen of the jejunum was collected on day 3.5 after irradiation. The presence of more than five PCNA positive cells grouped together in a crypt was recorded as a surviving crypt. […]
# [5] = tested on: cecal content microbiome of male C57BL/6J mice; test: Microbiome analysis of cecal content on day 3.5 after 12 Gy PBI; format: in vivo, mouse; conditions: 2.5 mg/kg at 24 and 72 h
# Protocol: FIGS. 9A-9C are pie charts showing the distribution of different bacterial strains in the cecal content of sham-irradiated vehicle treated mice (FIGS. 9A), 12 Gy PBI plus vehicle treated mice (FIG. 9B), and mice treated with […] and 2.5 mg/kg GGTi-2133 in two administrations (FIG. 9C).
# GGTi-2133 alters the percent of 3 bacterial species in the cecal content of mice on day 3.5 after PBI: Male C57BL/6J mice were exposed to 12 Gy PBI and administered GGTi-2133 (2.5 mg/kg) at 24 hours and 72 hours after irradiation. A sample of cecal content was aseptically collected 3.5 days after PBI. […] There were 8 mice in each group. […] GGTi-2133 increased the percentage of Akkermansia muciniphila in irradiated mice. The percentage of Turicibacter and Clostridium species were increased in PBI plus vehicle treated mice as compared to sham-irradiated vehicle-treated mice. The percentage of Turicibacter and Clostridium species were reduced in PBI plus GGTi-2133 treated mice compared to PBI plus vehicle treated mice.
# [6] = tested on: BxPC-3 human pancreatic adenocarcinoma cell line; test: MTT assay of cell proliferation and metabolic rate; format: cell-based; conditions: 3 concentrations, once a day for 4 days, time-dependent and dose-dependent
# Protocol: (§1) Human pancreatic cancer cell lines (PANC-1, BxPC-3, PSN-1) and a human prostate cancer cell line (LNCaP) were cultured in vitro at 37° C. and 5% CO2 and incubated with GGTi-2133 at 3 different concentrations. Cell proliferation and metabolic rate were measured with an MTT assay once a day for a total of 4 days. GGTi-2133 reduced the cell proliferation rate in all 4 cell lines in a dose-dependent manner. […] Finally, GGTi-2133 reduced the metabolic activity in LNCaP cells exposed to ionizing radiation.
# (§2) FIG. 10F is a bar graph showing cell proliferation and metabolic rate in the LNCaP cell line were reduced to a greater extent after combined treatment with 2 Gy radiation plus GGTi-2133 treatment, in comparison to singular treatment with either 2 Gy radiation or GGTi-2133. Data are represented as mean+/−SD (n=4).
# [7] = tested on: PANC-1 human pancreatic epithelioid carcinoma cell line; test: MTT assay of cell proliferation and metabolic rate; format: cell-based; conditions: 3 concentrations, once a day for 4 days, time-dependent and dose-dependent
# Protocol: as §1, §2
# [8] = tested on: PSN-1 human pancreatic cancer cell line; test: MTT assay of cell proliferation and metabolic rate; format: cell-based; conditions: 3 concentrations, once a day for 4 days, time-dependent and dose-dependent
# Protocol: as §1, §2
# [9] = tested on: LNCaP androgen-sensitive human prostate adenocarcinoma cell line; test: MTT assay of cell proliferation and metabolic rate, with or without 2 Gy radiation; format: cell-based
# Protocol: as §1, §2
# PANC-1 cell line = test: Clonogenic assay (colony forming ability); format: cell-based, human; conditions: dose-dependent
# PSN-1 cell line = test: Clonogenic assay (colony forming ability); format: cell-based, human; conditions: dose-dependent
# [10] = 12 Gy PBI, 5 or 10 mg/kg body weight, vs vehicle
# [11] = 12 Gy PBI, i.p. 1 or 2.5 mg/kg three times per week starting 24 h after PBI, 2 weeks, vs vehicle
# [12] = 12 Gy PBI, i.p. 1 or 2.5 mg/kg, vs PBI plus vehicle
structure (smiles),measurement,setting,value
COC(=O)[C@H](CC(C)C)NC(=O)c1ccc(NC[C@@H](N)CS)cc1-c1cccc2ccccc12 [GGTi-298],PBI-induced increase in crypt depth,[1]; [10],attenuated
same,PBI-induced increase in crypt width,[1]; [10],attenuated
same,PBI-induced reduction in villus height,[1]; [10],attenuated
Cc1nc[nH]c1CN1CCN(C(=O)N[C@@H](CC(C)C)C(=O)O)[C@@H](Cc2ccccc2)C1=O [GGTi-2418],mouse equivalent of the safe human dose,[2],660 mg/kg
same,dose that can be administered safely to humans,[3],"up to 2,060 mg/m^2"
same,"dose that can be administered safely to humans, per body weight",[3],≤ 54 mg/kg body weight
CC(C)C[C@H](NC(=O)c1ccc(NCc2cnc[nH]2)cc1-c1cccc2ccccc12)C(=O)O [GGTi-2133],OLFM4 (intestinal stem cell marker) staining,"[1]; 2 weeks after 12 Gy γ-ray PBI, immunohistochemistry, 1 or 2.5 mg/kg",restored
same,PBI-induced body weight loss,"[1]; 12 Gy PBI, 2.5 mg/kg body weight i.p., vs vehicle",significantly less
same,proliferating cell number in the crypts (PCNA and Ki-67),"[1]; 12 Gy PBI, 2.5 mg/kg body weight, vs PBI plus vehicle",significantly increased
same,PBI-induced decrease in mucosal surface area (MSA),[1]; [11],attenuated
same,PBI-induced increase in crypt depth,[1]; [11],attenuated
same,PBI-induced increase in enterocyte length,[1]; [11],attenuated
same,PBI-induced increase in enterocyte nuclear length,[1]; [11],attenuated
same,PBI-induced reduction in villus height,[1]; [11],attenuated
same,Alcian blue staining intensity of goblet cells,[1]; [12],significantly enhanced
same,intraepithelial macrophage (CD68) number per villus,[1]; [12],decrease
same,lymphocyte (CD3ε positive) number in the intestine,[1]; [12],significant recovery
same,neutrophil (MPO positive) number in the intestine,[1]; [12],significant recovery
same,number of mucus secreting goblet cells (Alcian blue),[1]; [12],elevated
same,stromal macrophage (CD68) number per villus,[1]; [12],decrease
same,number of surviving crypts,[4],significantly (p=0.002) increased
same,percentage of Akkermansia muciniphila in cecal content,[5]; irradiated mice,increased
same,percentage of Clostridium species in cecal content,[5]; vs PBI plus vehicle,reduced
same,percentage of Turicibacter species in cecal content,[5]; vs PBI plus vehicle,reduced
same,proliferation rate and metabolic activity (MTT),[6],suppresses
same,proliferation rate and metabolic activity (MTT),[7],suppresses
same,proliferation rate and metabolic activity (MTT),[8],suppresses
same,proliferation rate and metabolic activity (MTT),"[9]; 3 concentrations, once a day for 4 days, time-dependent and dose-dependent",suppresses
same,radiation-induced decline in proliferation rate and metabolic activity,[9]; combined with 2 Gy radiation vs either treatment alone,enhances
same,colony forming ability,PANC-1 cell line,suppresses
same,colony forming ability,PSN-1 cell line,suppresses
